Assay: xn = mol fraction of the nth substance listed
Details: 102 kPa, Liquid; for speed of sound: Frequency=3 MHz, Single path-length method; for mass density: Vibrating tube method; for viscosity: Concentric cylinders viscometry

CCCCCCCCCCCCC1CCCCC1 [dodecylcyclohexane] + CCCCCCCCCCCC
Details	mass density [kg/m3]	speed of sound [m/s]	viscosity [mPa·s]
288.15 K, x1 = 0.1005	762.18	1333.2	–
288.15 K, x1 = 0.2001	771.24	1348	–
288.15 K, x1 = 0.298	779.52	1361.9	–
288.15 K, x1 = 0.4031	787.8	1375.7	–
288.15 K, x1 = 0.5001	794.95	1387.9	–
288.15 K, x1 = 0.6005	801.89	1400	–
288.15 K, x1 = 0.7003	808.42	1411.3	–
288.15 K, x1 = 0.7997	814.5	1421.8	–
288.15 K, x1 = 0.8994	820.23	1432.1	–
288.15 K, x1 = 1	825.71	1441.5	–
293.15 K, x1 = 0.1005	758.6	1313.7	1.82
293.15 K, x1 = 0.2001	767.69	1328.7	2.14
293.15 K, x1 = 0.298	776	1342.6	2.53
293.15 K, x1 = 0.4031	784.32	1356.6	3.03
293.15 K, x1 = 0.5001	791.49	1368.9	3.55
293.15 K, x1 = 0.6005	798.47	1381	4.17
293.15 K, x1 = 0.7003	805.01	1392.4	4.9
293.15 K, x1 = 0.7997	811.11	1403.1	5.73
293.15 K, x1 = 0.8994	816.87	1413.3	6.68
293.15 K, x1 = 1	822.36	1422.9	7.76
298.15 K, x1 = 0.1005	755.01	1294.4	–
298.15 K, x1 = 0.2001	764.14	1309.5	–
298.15 K, x1 = 0.298	772.48	1323.5	–
298.15 K, x1 = 0.4031	780.84	1337.6	–
298.15 K, x1 = 0.5001	788.04	1350	–
298.15 K, x1 = 0.6005	795.04	1362.1	–
298.15 K, x1 = 0.7003	801.61	1374	–
298.15 K, x1 = 0.7997	807.73	1384.7	–
298.15 K, x1 = 0.8994	813.51	1395.1	–
298.15 K, x1 = 1	819.02	1404.8	–
303.15 K, x1 = 0.1005	751.42	1275.3	1.53
303.15 K, x1 = 0.2001	760.58	1290.5	1.75
303.15 K, x1 = 0.298	768.97	1304.6	2.05
303.15 K, x1 = 0.4031	777.36	1318.8	2.43
303.15 K, x1 = 0.5001	784.59	1331.3	2.82
303.15 K, x1 = 0.6005	791.62	1343.5	3.28
303.15 K, x1 = 0.7003	798.2	1355.4	3.79
303.15 K, x1 = 0.7997	804.35	1366.3	4.38
303.15 K, x1 = 0.8994	810.15	1376.6	5.05
303.15 K, x1 = 1	815.68	1386.3	5.81
313.15 K, x1 = 0.1005	744.23	1237.7	1.29
313.15 K, x1 = 0.2001	753.48	1253.1	1.46
313.15 K, x1 = 0.298	761.93	1267.5	1.7
313.15 K, x1 = 0.4031	770.4	1281.9	1.99
313.15 K, x1 = 0.5001	777.69	1294.6	2.28
313.15 K, x1 = 0.6005	784.77	1307	2.63
313.15 K, x1 = 0.7003	791.4	1319.2	3.01
313.15 K, x1 = 0.7997	797.6	1330.2	3.45
313.15 K, x1 = 0.8994	803.45	1340.7	3.93
313.15 K, x1 = 1	809.03	1350.5	4.48
323.15 K, x1 = 0.1005	737.02	1200.9	1.09
323.15 K, x1 = 0.2001	746.35	1216.6	1.27
323.15 K, x1 = 0.298	754.88	1231.1	1.43
323.15 K, x1 = 0.4031	763.43	1245.9	1.66
323.15 K, x1 = 0.5001	770.78	1258.7	1.89
323.15 K, x1 = 0.6005	777.93	1271.3	2.16
323.15 K, x1 = 0.7003	784.61	1283.6	2.45
323.15 K, x1 = 0.7997	790.86	1294.8	2.78
323.15 K, x1 = 0.8994	796.76	1305.4	3.14
323.15 K, x1 = 1	802.38	1315.4	3.55
333.15 K, x1 = 0.1005	729.78	1165.1	0.945
333.15 K, x1 = 0.2001	739.2	1181	1.09
333.15 K, x1 = 0.298	747.81	1195.8	1.22
333.15 K, x1 = 0.4031	756.44	1210.7	1.4
333.15 K, x1 = 0.5001	763.86	1223.8	1.59
333.15 K, x1 = 0.6005	771.08	1236.5	1.8
333.15 K, x1 = 0.7003	777.81	1248.9	2.03
333.15 K, x1 = 0.7997	784.13	1260.3	2.29
333.15 K, x1 = 0.8994	790.08	1271	2.57
333.15 K, x1 = 1	795.75	1281.4	2.88
